# Test results reported in the supplement of paper PMC10307832.
# Experiments:
# Experiment in all cases: relative viability (nuclei count vs DMSO), 5 days (fraction); higher = more cells survive
# Pictilisib + Bortezomib = compound: CS(=O)(=O)N1CCN(Cc2cc3nc(-c4cccc5[nH]ncc45)nc(N4CCOCC4)c3s2)CC1 [Pictilisib] + CC(C)C[C@H](NC(=O)[C@H](Cc1ccccc1)NC(=O)c1cnccn1)B(O)O [Bortezomib] (partner 0.002 µM)
# In short: (§1)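 Lung cancer cell lines in 1536-well plates were dosed by pin tool the day after seeding, either with one drug alone or with a fixed anchor-drug dose plus five library-drug doses (not always all listed) in √10 steps. After 5 days, cells were fixed and their nuclei stained in one step (final 0.05% Triton X-100, 1% formaldehyde, 1 ug/ml Hoechst), then counted on 4× images. Relative viability is the nuclei count in treated wells divided by that in vehicle wells. Values are medians of duplicate plates.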
# Pictilisib + Palbociclib = compound: CS(=O)(=O)N1CCN(Cc2cc3nc(-c4cccc5[nH]ncc45)nc(N4CCOCC4)c3s2)CC1 [Pictilisib] + CC(=O)c1c(C)c2cnc(Nc3ccc(N4CCNCC4)cn3)nc2n(C2CCCC2)c1=O [Palbociclib] (partner 0.5 µM)
# In short: as §1
# Pictilisib + Luminespib = compound: CS(=O)(=O)N1CCN(Cc2cc3nc(-c4cccc5[nH]ncc45)nc(N4CCOCC4)c3s2)CC1 [Pictilisib] + CCNC(=O)c1noc(-c2cc(C(C)C)c(O)cc2O)c1-c1ccc(CN2CCOCC2)cc1 [Luminespib] (partner 0.01 µM)
# In short: as §1
# MK-2206 + Tozasertib = compound: NC1(c2ccc(-c3nc4ccn5c(=O)[nH]nc5c4cc3-c3ccccc3)cc2)CCC1 [MK-2206] + Cc1cc(Nc2cc(N3CCN(C)CC3)nc(Sc3ccc(NC(=O)C4CC4)cc3)n2)n[nH]1 [Tozasertib] (partner 0.1 µM)
# In short: as §1
# Pictilisib + AZD7762 = compound: CS(=O)(=O)N1CCN(Cc2cc3nc(-c4cccc5[nH]ncc45)nc(N4CCOCC4)c3s2)CC1 [Pictilisib] + NC(=O)Nc1cc(-c2cccc(F)c2)sc1C(=O)N[C@H]1CCCNC1 [AZD7762] (partner 0.2 µM)
# In short: as §1
cell line,measurement,setting,value
HCC-827,relative viability,Pictilisib + Bortezomib; first compound 0.02 µM,1.03
same,relative viability,Pictilisib + Bortezomib; first compound 0.06325 µM,1.03
same,relative viability,Pictilisib + Bortezomib; first compound 0.6325 µM,1.14
same,relative viability,Pictilisib + Bortezomib; first compound 2 µM,1.03
same,relative viability,Pictilisib + Palbociclib; first compound 0.02 µM,0.517
same,relative viability,Pictilisib + Palbociclib; first compound 0.06325 µM,0.415
same,relative viability,Pictilisib + Palbociclib; first compound 0.6325 µM,0.234
same,relative viability,Pictilisib + Palbociclib; first compound 2 µM,0.188
same,relative viability,Pictilisib + Luminespib; first compound 0.02 µM,1.01
same,relative viability,Pictilisib + Luminespib; first compound 0.06325 µM,0.472
same,relative viability,Pictilisib + Luminespib; first compound 0.6325 µM,0.224
same,relative viability,Pictilisib + Luminespib; first compound 2 µM,0.152
same,relative viability,MK-2206 + Tozasertib; first compound 0.01 µM,0.441
same,relative viability,MK-2206 + Tozasertib; first compound 0.03162 µM,0.438
same,relative viability,MK-2206 + Tozasertib; first compound 0.3162 µM,0.366
same,relative viability,MK-2206 + Tozasertib; first compound 1 µM,0.412
same,relative viability,Pictilisib + AZD7762; first compound 0.02 µM,0.17
same,relative viability,Pictilisib + AZD7762; first compound 0.06325 µM,0.153
same,relative viability,Pictilisib + AZD7762; first compound 0.6325 µM,0.154
same,relative viability,Pictilisib + AZD7762; first compound 2 µM,0.122
PC-3 [JPC-3],relative viability,Pictilisib + Bortezomib; first compound 0.02 µM,0.795
same,relative viability,Pictilisib + Bortezomib; first compound 0.06325 µM,0.87
same,relative viability,Pictilisib + Bortezomib; first compound 0.6325 µM,0.896
same,relative viability,Pictilisib + Bortezomib; first compound 2 µM,0.811
same,relative viability,Pictilisib + Palbociclib; first compound 0.02 µM,0.539
same,relative viability,Pictilisib + Palbociclib; first compound 0.06325 µM,0.494
same,relative viability,Pictilisib + Palbociclib; first compound 0.6325 µM,0.534
same,relative viability,Pictilisib + Palbociclib; first compound 2 µM,0.456
same,relative viability,Pictilisib + Luminespib; first compound 0.02 µM,0.604
same,relative viability,Pictilisib + Luminespib; first compound 0.06325 µM,0.775
same,relative viability,Pictilisib + Luminespib; first compound 0.6325 µM,0.509
same,relative viability,Pictilisib + Luminespib; first compound 2 µM,0.462
same,relative viability,MK-2206 + Tozasertib; first compound 0.01 µM,0.874
same,relative viability,MK-2206 + Tozasertib; first compound 0.03162 µM,0.83
same,relative viability,MK-2206 + Tozasertib; first compound 0.3162 µM,0.873
same,relative viability,MK-2206 + Tozasertib; first compound 1 µM,0.899
same,relative viability,Pictilisib + AZD7762; first compound 0.02 µM,0.812
same,relative viability,Pictilisib + AZD7762; first compound 0.06325 µM,0.844
same,relative viability,Pictilisib + AZD7762; first compound 0.6325 µM,0.491
same,relative viability,Pictilisib + AZD7762; first compound 2 µM,0.324
NCI-H1355,relative viability,Pictilisib + Bortezomib; first compound 0.02 µM,1.23
same,relative viability,Pictilisib + Bortezomib; first compound 0.06325 µM,1.2
same,relative viability,Pictilisib + Bortezomib; first compound 0.6325 µM,1.14
same,relative viability,Pictilisib + Bortezomib; first compound 2 µM,0.678
same,relative viability,Pictilisib + Palbociclib; first compound 0.02 µM,0.405
same,relative viability,Pictilisib + Palbociclib; first compound 0.06325 µM,0.356
same,relative viability,Pictilisib + Palbociclib; first compound 0.6325 µM,0.293
same,relative viability,Pictilisib + Palbociclib; first compound 2 µM,0.217
same,relative viability,Pictilisib + Luminespib; first compound 0.02 µM,0.731
same,relative viability,Pictilisib + Luminespib; first compound 0.06325 µM,0.593
same,relative viability,Pictilisib + Luminespib; first compound 0.6325 µM,0.582
same,relative viability,Pictilisib + Luminespib; first compound 2 µM,0.272
same,relative viability,MK-2206 + Tozasertib; first compound 0.01 µM,0.555
same,relative viability,MK-2206 + Tozasertib; first compound 0.03162 µM,0.587
same,relative viability,MK-2206 + Tozasertib; first compound 0.3162 µM,0.533
same,relative viability,MK-2206 + Tozasertib; first compound 1 µM,0.47
same,relative viability,Pictilisib + AZD7762; first compound 0.02 µM,0.678
same,relative viability,Pictilisib + AZD7762; first compound 0.06325 µM,0.689
same,relative viability,Pictilisib + AZD7762; first compound 0.6325 µM,0.546
same,relative viability,Pictilisib + AZD7762; first compound 2 µM,0.362
NCI-H727,relative viability,Pictilisib + Bortezomib; first compound 0.02 µM,0.992
same,relative viability,Pictilisib + Bortezomib; first compound 0.06325 µM,0.941
same,relative viability,Pictilisib + Bortezomib; first compound 0.6325 µM,0.784
same,relative viability,Pictilisib + Bortezomib; first compound 2 µM,0.609
same,relative viability,Pictilisib + Palbociclib; first compound 0.02 µM,0.595
same,relative viability,Pictilisib + Palbociclib; first compound 0.06325 µM,0.65
same,relative viability,Pictilisib + Palbociclib; first compound 0.6325 µM,0.541
same,relative viability,Pictilisib + Palbociclib; first compound 2 µM,0.496
same,relative viability,Pictilisib + Luminespib; first compound 0.02 µM,0.443
same,relative viability,Pictilisib + Luminespib; first compound 0.06325 µM,0.334
same,relative viability,Pictilisib + Luminespib; first compound 0.6325 µM,0.29
same,relative viability,Pictilisib + Luminespib; first compound 2 µM,0.346
same,relative viability,MK-2206 + Tozasertib; first compound 0.01 µM,0.578
same,relative viability,MK-2206 + Tozasertib; first compound 0.03162 µM,0.659
same,relative viability,MK-2206 + Tozasertib; first compound 0.3162 µM,0.559
same,relative viability,MK-2206 + Tozasertib; first compound 1 µM,0.626
same,relative viability,Pictilisib + AZD7762; first compound 0.02 µM,0.636
same,relative viability,Pictilisib + AZD7762; first compound 0.06325 µM,0.545
same,relative viability,Pictilisib + AZD7762; first compound 0.6325 µM,0.607
same,relative viability,Pictilisib + AZD7762; first compound 2 µM,0.31
NCI-H1975,relative viability,Pictilisib + Bortezomib; first compound 0.02 µM,0.358
same,relative viability,Pictilisib + Bortezomib; first compound 0.06325 µM,0.443
same,relative viability,Pictilisib + Bortezomib; first compound 0.6325 µM,0.284
same,relative viability,Pictilisib + Bortezomib; first compound 2 µM,0.239
same,relative viability,Pictilisib + Palbociclib; first compound 0.02 µM,0.553
same,relative viability,Pictilisib + Palbociclib; first compound 0.06325 µM,0.544
same,relative viability,Pictilisib + Palbociclib; first compound 0.6325 µM,0.342
same,relative viability,Pictilisib + Palbociclib; first compound 2 µM,0.143
same,relative viability,Pictilisib + Luminespib; first compound 0.02 µM,0.19
same,relative viability,Pictilisib + Luminespib; first compound 0.06325 µM,0.172
same,relative viability,Pictilisib + Luminespib; first compound 0.6325 µM,0.142
same,relative viability,Pictilisib + Luminespib; first compound 2 µM,0.136
same,relative viability,MK-2206 + Tozasertib; first compound 0.01 µM,0.798
same,relative viability,MK-2206 + Tozasertib; first compound 0.03162 µM,0.66
same,relative viability,MK-2206 + Tozasertib; first compound 0.3162 µM,0.573
same,relative viability,MK-2206 + Tozasertib; first compound 1 µM,0.535
same,relative viability,Pictilisib + AZD7762; first compound 0.02 µM,0.816
same,relative viability,Pictilisib + AZD7762; first compound 0.06325 µM,0.62
same,relative viability,Pictilisib + AZD7762; first compound 0.6325 µM,0.466
same,relative viability,Pictilisib + AZD7762; first compound 2 µM,0.225
NCI-H460,relative viability,Pictilisib + Bortezomib; first compound 0.02 µM,1.1
same,relative viability,Pictilisib + Bortezomib; first compound 0.06325 µM,1.36
same,relative viability,Pictilisib + Bortezomib; first compound 0.6325 µM,0.57
same,relative viability,Pictilisib + Bortezomib; first compound 2 µM,0.111
same,relative viability,Pictilisib + Palbociclib; first compound 0.02 µM,0.185
same,relative viability,Pictilisib + Palbociclib; first compound 0.06325 µM,0.161
same,relative viability,Pictilisib + Palbociclib; first compound 0.6325 µM,0.111
same,relative viability,Pictilisib + Palbociclib; first compound 2 µM,0.0339
same,relative viability,Pictilisib + Luminespib; first compound 0.02 µM,0.0289
same,relative viability,Pictilisib + Luminespib; first compound 0.06325 µM,0.0281
same,relative viability,Pictilisib + Luminespib; first compound 0.6325 µM,0.0266
same,relative viability,Pictilisib + Luminespib; first compound 2 µM,0.019
same,relative viability,MK-2206 + Tozasertib; first compound 0.01 µM,0.362
same,relative viability,MK-2206 + Tozasertib; first compound 0.03162 µM,0.691
same,relative viability,MK-2206 + Tozasertib; first compound 0.3162 µM,0.601
same,relative viability,MK-2206 + Tozasertib; first compound 1 µM,0.665
same,relative viability,Pictilisib + AZD7762; first compound 0.02 µM,0.72
same,relative viability,Pictilisib + AZD7762; first compound 0.06325 µM,0.66
same,relative viability,Pictilisib + AZD7762; first compound 0.6325 µM,0.627
same,relative viability,Pictilisib + AZD7762; first compound 2 µM,0.183
EPLC-272H,relative viability,Pictilisib + Bortezomib; first compound 0.02 µM,0.971
same,relative viability,Pictilisib + Bortezomib; first compound 0.06325 µM,1.12
same,relative viability,Pictilisib + Bortezomib; first compound 0.6325 µM,0.607
same,relative viability,Pictilisib + Bortezomib; first compound 2 µM,0.615
same,relative viability,Pictilisib + Palbociclib; first compound 0.02 µM,0.348
same,relative viability,Pictilisib + Palbociclib; first compound 0.06325 µM,0.298
same,relative viability,Pictilisib + Palbociclib; first compound 0.6325 µM,0.317
same,relative viability,Pictilisib + Palbociclib; first compound 2 µM,0.243
same,relative viability,Pictilisib + Luminespib; first compound 0.02 µM,0.213
same,relative viability,Pictilisib + Luminespib; first compound 0.06325 µM,0.424
same,relative viability,Pictilisib + Luminespib; first compound 0.6325 µM,0.184
same,relative viability,Pictilisib + Luminespib; first compound 2 µM,0.207
same,relative viability,MK-2206 + Tozasertib; first compound 0.01 µM,0.292
same,relative viability,MK-2206 + Tozasertib; first compound 0.03162 µM,0.378
same,relative viability,MK-2206 + Tozasertib; first compound 0.3162 µM,0.344
same,relative viability,MK-2206 + Tozasertib; first compound 1 µM,0.246
same,relative viability,Pictilisib + AZD7762; first compound 0.02 µM,0.25
same,relative viability,Pictilisib + AZD7762; first compound 0.06325 µM,0.279
same,relative viability,Pictilisib + AZD7762; first compound 0.6325 µM,0.173
same,relative viability,Pictilisib + AZD7762; first compound 2 µM,0.14
NCI-H322M,relative viability,Pictilisib + Bortezomib; first compound 0.02 µM,1.11
same,relative viability,Pictilisib + Bortezomib; first compound 0.06325 µM,1.2
same,relative viability,Pictilisib + Bortezomib; first compound 0.6325 µM,0.873
same,relative viability,Pictilisib + Bortezomib; first compound 2 µM,0.907
same,relative viability,Pictilisib + Palbociclib; first compound 0.02 µM,0.496
same,relative viability,Pictilisib + Palbociclib; first compound 0.06325 µM,0.495
same,relative viability,Pictilisib + Palbociclib; first compound 0.6325 µM,0.448
same,relative viability,Pictilisib + Palbociclib; first compound 2 µM,0.415
same,relative viability,Pictilisib + Luminespib; first compound 0.02 µM,0.857
same,relative viability,Pictilisib + Luminespib; first compound 0.06325 µM,0.763
same,relative viability,Pictilisib + Luminespib; first compound 0.6325 µM,0.511
same,relative viability,Pictilisib + Luminespib; first compound 2 µM,0.263
same,relative viability,MK-2206 + Tozasertib; first compound 0.01 µM,0.455
same,relative viability,MK-2206 + Tozasertib; first compound 0.03162 µM,0.552
same,relative viability,MK-2206 + Tozasertib; first compound 0.3162 µM,0.449
same,relative viability,MK-2206 + Tozasertib; first compound 1 µM,0.455
same,relative viability,Pictilisib + AZD7762; first compound 0.02 µM,0.55
same,relative viability,Pictilisib + AZD7762; first compound 0.06325 µM,0.607
same,relative viability,Pictilisib + AZD7762; first compound 0.6325 µM,0.495
same,relative viability,Pictilisib + AZD7762; first compound 2 µM,0.339
